The record followed here is ChEMBL document CHEMBL1201862, “PubChem BioAssay data set” (2004).

Some test systems named below: SK-OV-3; OVCAR-4; SK-MEL-28; NCI-H522; NCI-H460; RXF 393; SNB-75; SW-620; SF-539; SK-MEL-2; SF-295; HL-60; IGROV-1; HOP-62; EKVX; SNB-19; CCRF-CEM; SN12C; UACC-257; LOX IMVI.
Holding throughout (experiment): NCI tumour cell line growth inhibition, 48 h

Structures are written as SMILES.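 Interpolation was linear, between the two tested concentrations surrounding the appropriate level; five concentrations were tested over 48 hours in 96-well plates. At the GI50, growth is halved.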 The source made the active and inactive calls. Cut-off read from the data, not from the text of the source: active = GI50 up to about 1.1 µM and inactive = higher. Non-standard residues stand in square brackets, D forms with d. Residues, ends and D or L forms follow the SMILES beside them. ξ: configuration not given here. Pentanoyl(2-O,4-OH,5-Cl) = O=C(O)C(O)CC(O)CCl; Ile(3ξ) = CCC(C)[C@H](N)C(=O)O; NMeV = CN[C@H](C(=O)O)C(C)C; NMeA = CN[C@@H](C)C(=O)O; βAla = NCCC(=O)O

In the case of `C=CCOCCC(CC=C)C(=O)CC(=O)OC` (centres undefined), the GI50 with SK-OV-3, in the test with OVCAR-4, in the test with SK-MEL-28, with NCI-H522, with NCI-H460 and in the test on RXF 393 was > 100 µM (inactive) in each case. Moreover, the GI50 is 25.9 µM (inactive) in the test with SNB-75; > 100 µM (inactive) with SW-620; > 100 µM (inactive) with SF-539; > 100 µM (inactive) in the test on SK-MEL-2; > 100 µM (inactive) in the test with SF-295; 13.5 µM (inactive) with HL-60. Besides, the GI50 in the test on IGROV-1 is > 100 µM (inactive); with HOP-62, > 100 µM (inactive); in the test with EKVX, > 100 µM (inactive); in the test with SNB-19, > 100 µM (inactive); with CCRF-CEM, 4.23 µM (inactive); in the test on SN12C it was > 100 µM (inactive). The values for the GI50 with UACC-257 and in the test on LOX IMVI were > 100 µM (inactive) and 27.9 µM (inactive), respectively.

For the compound `Cc1ccc(S(=O)(=O)N(C=O)N=C2CCN(Cc3ccccc3)CC2)cc1`, the GI50 in the test on SK-OV-3, with OVCAR-4, in the test with NCI-H522, in the test on NCI-H460, in the test on RXF 393 and in the test on SNB-75 was > 100 µM (inactive) each time. Moreover, the GI50 in the test on SW-620, in the test with SF-539, with SK-MEL-2, with SF-295, in the test on HL-60 and with IGROV-1 was > 100 µM (inactive) each time. Moreover, the GI50 in the test on HOP-62, in the test on EKVX, in the test with SNB-19, with CCRF-CEM, with SN12C and with UACC-257 was > 100 µM (inactive) each time. In the test on LOX IMVI, the GI50 was > 100 µM (inactive).

With `N#CCCC(CCC#N)(CCC#N)NO`, the GI50 in the test on SK-OV-3 is > 100 µM (inactive); with NCI-H522 it was 0.013 µM (active); in the test with NCI-H460 it was > 100 µM (inactive); with RXF 393 it was > 100 µM (inactive); with SNB-75, 73.8 µM (inactive); in the test with SW-620, > 100 µM (inactive). In addition, the GI50 in the test with SF-539, in the test with SK-MEL-2, in the test with SF-295, in the test with HL-60, in the test with IGROV-1 and in the test on EKVX was > 100 µM (inactive) each time. Also, the GI50 in the test with SNB-19, in the test on SN12C and in the test with UACC-257 was > 100 µM (inactive) in each case.

For `O=C/C(=C1/C=Cc2cc([N+](=O)[O-])ccc2S1)c1ccccc1`, the GI50 in the test with SK-OV-3, in the test with OVCAR-4, in the test with SK-MEL-28, in the test with NCI-H522, in the test on NCI-H460 and with RXF 393 was > 100 µM (inactive) in each case. Besides, the GI50 in the test on SNB-75 was 25.1 µM (inactive); in the test on SF-539 it was > 100 µM (inactive); in the test on SK-MEL-2, > 100 µM (inactive); in the test with SF-295 it was > 100 µM (inactive); in the test with HL-60 it was > 100 µM (inactive); with IGROV-1, > 100 µM (inactive). Also, the GI50 in the test with HOP-62, in the test on EKVX, with SNB-19, with CCRF-CEM, in the test on SN12C and in the test with UACC-257 was > 100 µM (inactive) in each case. Also, the GI50 in the test with LOX IMVI is > 100 µM (inactive).

On to `COc1ccc(C2c3cc4c(cc3OC(NCCO)C2C)OCO4)cc1` (centres undefined), for which the GI50 is 38.1 µM (inactive) with SK-OV-3; 25.1 µM (inactive) with SK-MEL-28; 16.6 µM (inactive) in the test with NCI-H522; 22.8 µM (inactive) in the test with NCI-H460; 23.2 µM (inactive) with RXF 393; 19.6 µM (inactive) in the test on SNB-75. Moreover, the GI50 is 34.4 µM (inactive) in the test with SW-620; 20 µM (inactive) in the test with SF-539; 19.3 µM (inactive) in the test on SK-MEL-2; 27.9 µM (inactive) in the test on SF-295; 22.6 µM (inactive) in the test with HL-60; 28.8 µM (inactive) in the test with IGROV-1. Also, the GI50 in the test with HOP-62 was 29.8 µM (inactive); in the test with EKVX, 32 µM (inactive); in the test with SNB-19 it was 28 µM (inactive); in the test on CCRF-CEM, 21.2 µM (inactive); with SN12C it was 23.8 µM (inactive); in the test on UACC-257 it was 21 µM (inactive). Further, the GI50 with LOX IMVI is 23.3 µM (inactive).

For `CCOC(=O)c1c[nH]c2cc3c(cc2c1=O)CCS3(=O)=O.CCOC(=O)c1c[nH]c2ccc3c(c2c1=O)S(=O)(=O)CC3`, the GI50 in the test on SK-OV-3, in the test with OVCAR-4, in the test with SK-MEL-28, with NCI-H522, in the test on NCI-H460 and with RXF 393 was > 100 µM (inactive) in each case. Also, the GI50 in the test with SNB-75, with SW-620, in the test on SF-539, with SK-MEL-2, in the test on SF-295 and with HL-60 was > 100 µM (inactive) throughout. For the same compound, the GI50 with IGROV-1, in the test on HOP-62, with EKVX, with SNB-19, in the test on CCRF-CEM and in the test on SN12C was > 100 µM (inactive) throughout. Moreover, the GI50 in the test on UACC-257 and with LOX IMVI was > 100 µM (inactive) in each case.

For `CN(C)CCCNC(=O)N/N=C/c1ccccc1`, the GI50 with SK-OV-3, in the test on SK-MEL-28, with NCI-H522, in the test on NCI-H460, in the test on RXF 393 and in the test on SNB-75 was > 100 µM (inactive) each time. Besides, the GI50 in the test on SW-620, in the test with SF-539, in the test on SK-MEL-2, with SF-295, with HL-60 and in the test on IGROV-1 was > 100 µM (inactive) throughout. For the same compound, the GI50 in the test on SNB-19, with CCRF-CEM, in the test with SN12C, in the test on UACC-257 and in the test on LOX IMVI was > 100 µM (inactive) throughout.

Turning to `C=CCC12CC(=O)C=C1CCC1(C2)OCCO1` (centres undefined), the GI50 in the test with SK-OV-3, in the test with OVCAR-4, with SK-MEL-28, in the test on NCI-H522, with NCI-H460 and in the test on RXF 393 was > 100 µM (inactive) each time. The GI50 with SNB-75, with SW-620, in the test on SF-539, in the test with SK-MEL-2, in the test on HL-60 and with IGROV-1 was > 100 µM (inactive) throughout. For the same compound, the GI50 in the test with HOP-62, in the test with SNB-19, in the test with CCRF-CEM, with SN12C and with UACC-257 was > 100 µM (inactive) each time.

Consider `CCOC(=O)C(=Cn1c(=S)[nH]c2ccc([N+](=O)[O-])cc21)C(=O)OCC`, for which the GI50 in the test with SK-OV-3, in the test with OVCAR-4, in the test on SK-MEL-28, in the test on NCI-H522, in the test on NCI-H460 and in the test with RXF 393 was > 100 µM (inactive) in each case. Moreover, the GI50 was 47.9 µM (inactive) in the test on SNB-75; > 100 µM (inactive) with SW-620; > 100 µM (inactive) in the test on SF-539; > 100 µM (inactive) with SK-MEL-2; > 100 µM (inactive) in the test with SF-295; > 100 µM (inactive) in the test with HL-60. In addition, the GI50 in the test on IGROV-1, in the test on HOP-62, with EKVX, in the test on SNB-19, in the test with CCRF-CEM and in the test with SN12C was > 100 µM (inactive) in each case. The GI50 in the test on UACC-257 and in the test on LOX IMVI was > 100 µM (inactive) throughout.

With `CCC(C)[C@@H]1NC(=O)[C@@H]2CCCN2C(=O)C(CC(O)CCl)OC(=O)CCNC(=O)[C@H](C)N(C)C(=O)[C@H](C(C)C)N(C)C1=O` (some centres undefined) (cyclo([Ile(3ξ)][NMeV][NMeA][βAla][Pentanoyl(2-O,4-OH,5-Cl)]P)), the GI50 is > 100 µM (inactive) in the test on SK-OV-3; > 36.2 µM (inactive) in the test on OVCAR-4; 2.36 µM (inactive) with NCI-H522; > 31.4 µM (inactive) in the test with NCI-H460; > 100 µM (inactive) in the test with RXF 393; 2.92 µM (inactive) with SNB-75. For the same compound, the GI50 in the test with SW-620 was > 58.9 µM (inactive); in the test on SF-539, > 100 µM (inactive); with SK-MEL-2, 0.347 µM (active); in the test on SF-295 it was 2.31 µM (inactive); in the test on HL-60, 44.1 µM (inactive); in the test with IGROV-1, > 100 µM (inactive). In addition, the GI50 is > 68.2 µM (inactive) in the test on HOP-62; > 100 µM (inactive) with EKVX; > 100 µM (inactive) in the test with SNB-19; 0.483 µM (active) in the test on CCRF-CEM; > 100 µM (inactive) with SN12C; 2.46 µM (inactive) in the test on UACC-257.
